Drawing on patent US8557823B2, “Family of PFKFB3 inhibitors with anti-neoplastic activities” (Advanced Cancer Therapeutics, LLC, priority 2007, dated 2013), this text covers IC50 for one compound.

Structures are written as SMILES.

The subject of this assay is HeLa cervical cancer cells. Nature of the assay: In vitro growth inhibition, HeLa. In kind it is cell-based. The note with it: Homo sapiens. The method, then: The K562, HL-60, MDA-MB231, and melanoma (CRL-11174) human cancer cell lines were purchased from ATCC (American Tissue Type Culture Collection, Manassas, Va., United States of America). HeLa, A549, Lewis Lung Carcinoma, MDA-MB231, and melanoma cells were grown in Dulbecco's Modified Eagle Medium (DMEM) (Hyclone, Logan, Utah, United States of America) supplemented with 10% fetal bovine serum (Hyclone, Logan, Utah, United States of America) and 50 μg/mL gentamicin sulfate (Invitrogen, Carlsbad, Calif., United States of America). The HL-60, K562, and Jurkat cell lines were grown in RPMI-1640 medium (Hyclone, Logan, Utah, United States of America) supplemented with 10% fetal bovine serum and 50 μg/mL gentamicin sulfate. […]
Cells were collected 48 hours post-treatment, and cell number and viability were determined by trypan blue exclusion. […]

By IC50 is commonly meant the concentration that inhibits the measured activity by half. In turn, `O=C(/C=C/c1cccnc1)c1ccncc1` [Compound 1, 3-(3-pyridinyl)-1-(4-pyridinyl)-2-propen-1-one] showed an IC50 of 24 µM. In other words, the double-digit micromolar range.
